According to patent US20250019387A1 (Frontier Medicines Corporation, priority 0001, published 2025):

What follows are compounds tested against KRAS G12C and cRAF (Ras-binding domain) interaction (Homo sapiens (Human), UniProt P01116, C118S/C51S/C80L/G12C) (assay: Inhibition of KRAS G12C and cRAF binding (AlphaScreen)). Conditions: GMPPNP-loaded KRAS G12C, 19-20 hours incubation with compound; read-out: IC50 (Inhibition of KRAS G12C and cRAF Binding).
KRAS G12C and cRAF (Ras-binding domain) interaction, sequence (P01116 other isoform, or with tags, fused parts or gaps G12C/C51S/C80L/C118S): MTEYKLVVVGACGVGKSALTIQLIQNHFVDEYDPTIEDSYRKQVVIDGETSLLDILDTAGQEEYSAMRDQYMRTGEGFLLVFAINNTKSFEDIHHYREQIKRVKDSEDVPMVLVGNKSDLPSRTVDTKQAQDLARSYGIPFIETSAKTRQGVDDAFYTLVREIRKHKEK
Description: Compounds were diluted in 100% DMSO and each compound concentration was spotted at 200 nl/well onto low volume, white 384 well plates. […] Plates were incubated for 19-20 hours. A mixture of RBD and the AlphaScreen streptavidin donor and glutathione acceptor beads diluted in 25 mM Hepes, pH 7.4, 150 mM NaCl, 5 mM MgCl2, 0.01% TritonX-100 and 2% DMSO was then added at 10 ul/well and incubated for 60-90 minutes before the samples were read for emission at 570 nm after excitation of the donor beads at 680 nm. All incubations were performed at room temperature. […] IC50s were determined using nonlinear regression fit of [inhibitor]vs. response (4 parameters). […]
`CN(CCNC(=O)/C=C/C(=O)O)c1nc(OC[C@@H]2CCCN2C)nc2c1CCN(c1cccc3cccc(Cl)c13)C2` [Example 21, (S,E)-4-((2-((7-(8-chloronaphthalen-1-yl)-2-((1-methylpyrrolidin-2-yl)methoxy)-5,6,7,8-tetrahydropyrido[3,4-d]pyrimidin-4-yl)(methyl)amino)ethyl)amino)-4-oxobut-2-enoic acid] gave an IC50 greater than 500 nM.
`COC(=O)/C=C/C(=O)NCCN(C)c1nc(OCC23CCCN2CCC3)nc2c1CCN(c1cccc3cccc(Cl)c13)C2` [Example 13, Methyl(E)-4-((2-((7-(8-chloronaphthalen-1-yl)-2-((tetrahydro-1H-pyrrolizin-7a(5H)-yl)methoxy)-5,6,7,8-tetrahydropyrido[3,4-d]pyrimidin-4-yl)(methyl)amino)ethyl)amino)-4-oxobut-2-enoate] showed an IC50 of 10 to 100 nM.
Compound `CN1CC(=CC(=O)N2CC[C@@H](N(C)c3nc(OC[C@@]45CCCN4C[C@H](F)C5)nc4c(F)c(-c5cccc6cccc(Cl)c56)ncc34)C2)C1` [Example 276, 1-((R)-3-((7-(8-chloronaphthalen-1-yl)-8-fluoro-2-(((2R,7aS)-2-fluorotetrahydro-1H-pyrrolizin-7a(5H)-yl)methoxy)pyrido[4,3-d]pyrimidin-4-yl)(methyl)amino)pyrrolidin-1-yl)-2-(1-methylazetidin-3-ylidene)ethan-1-one] has an IC50 of 10 to 100 nM.
With `C#Cc1c(F)ccc2cccc(-c3ncc4c(N(C)[C@@H]5CCN(C(=O)/C=C/CN6CC[C@H](OC)C6)C5)nc(OC[C@@]56CCCN5C[C@H](F)C6)nc4c3F)c12` [Example 286, (E)-1-((R)-3-((7-(8-ethynyl-7-fluoronaphthalen-1-yl)-8-fluoro-2-(((2R,7aS)-2-fluorotetrahydro-1H-pyrrolizin-7a(5H)-yl)methoxy)pyrido[4,3-d]pyrimidin-4-yl)(methyl)amino)pyrrolidin-1-yl)-4-((S)-3-methoxypyrrolidin-1-yl)but-2-en-1-one] the IC50 was 10 to 100 nM.
`Cc1cc(/C=C/C(=O)N2CC[C@@H](N(C)c3nc(OC[C@@]45CCCN4C[C@H](F)C5)nc4c(F)c(-c5cccc6ccc(F)c(F)c56)ncc34)C2)nc(C)n1` [Example 203, (E)-1-((R)-3-((7-(7,8-difluoronaphthalen-1-yl)-8-fluoro-2-(((2R,7aS)-2-fluorohexahydro-1H-pyrrolizin-7a-yl)methoxy)pyrido[4,3-d]pyrimidin-4-yl)(methyl)amino)pyrrolidin-1-yl)-3-(2,6-dimethylpyrimidin-4-yl)prop-2-en-1-one] gave an IC50 of 10 to 100 nM.
Work on `C#Cc1c(F)ccc2cccc(-c3ncc4c(N(C)[C@@H]5CCN(C(=O)/C=C/CN6C[C@@H]7C[C@H]6CO7)C5)nc(OC[C@@]56CCCN5C[C@H](F)C6)nc4c3F)c12` [Example 291, (E)-4-((1S,4S)-2-oxa-5-azabicyclo[2.2.1]heptan-5-yl)-1-((R)-3-((7-(8-ethynyl-7-fluoronaphthalen-1-yl)-8-fluoro-2-(((2R,7aS)-2-fluorotetrahydro-1H-pyrrolizin-7a(5H)-yl)methoxy)pyrido[4,3-d]pyrimidin-4-yl)(methyl)amino)pyrrolidin-1-yl)but-2-en-1-one] yielded an IC50 of less than 10 nM.
`CN(c1nc(OC[C@@]23CCCN2C[C@H](F)C3)nc2c(F)c(-c3cccc4cccc(Cl)c34)ncc12)[C@@H]1CCN(C(=O)/C=C/c2nc(C3COC3)no2)C1` [Example 159, (E)-1-((R)-3-((7-(8-chloronaphthalen-1-yl)-8-fluoro-2-(((2R,7aS)-2-fluorohexahydro-1H-pyrrolizin-7a-yl)methoxy)pyrido[4,3-d]pyrimidin-4-yl)(methyl)amino)pyrrolidin-1-yl)-3-(3-(oxetan-3-yl)-1,2,4-oxadiazol-5-yl)prop-2-en-1-one] was tested, and the IC50 was less than 10 nM.
In the case of `CN(CC1CN(C(=O)/C=C/c2nc(C(C)(C)O)no2)C1)c1nc(OC[C@@]23CCCN2C[C@H](F)C3)nc2c(F)c(-c3cccc4ccc(F)c(Cl)c34)ncc12` [Example 78, (E)-1-(3-(((7-(8-chloro-7-fluoronaphthalen-1-yl)-8-fluoro-2-(((2R,7aS)-2-fluorotetrahydro-1H-pyrrolizin-7a(5H)-yl)methoxy)pyrido[4,3-d]pyrimidin-4-yl)(methyl)amino)methyl)azetidin-1-yl)-3-(3-(2-hydroxypropan-2-yl)-1,2,4-oxadiazol-5-yl)prop-2-en-1-one], the IC50 is reported as less than 10 nM.
In the case of `C=CC(=O)N1CC[C@@H](N(C)c2nc(OC[C@@]34CCCN3C[C@H](F)C4)nc3c(F)c(-c4cccc5cccc(C(F)F)c45)ncc23)C1` [Example 307, 1-((R)-3-((7-(8-(difluoromethyl)naphthalen-1-yl)-8-fluoro-2-(((2R,7aS)-2-fluorohexahydro-1H-pyrrolizin-7a-yl)methoxy)pyrido[4,3-d]pyrimidin-4-yl)(methyl)amino)pyrrolidin-1-yl)prop-2-en-1-one], the IC50 is reported as greater than 500 nM.
In the case of `CCc1c(F)ccc2cccc(-c3ncc4c(N(C)[C@@H]5CCN(C(=O)/C=C/[C@H]6CCN6C)C5)nc(OC[C@@]56CCCN5C[C@H](F)C6)nc4c3F)c12` [Example 196, (E)-1-((R)-3-((7-(8-ethyl-7-fluoronaphthalen-1-yl)-8-fluoro-2-(((2R,7aS)-2-fluorotetrahydro-1H-pyrrolizin-7a(5H)-yl)methoxy)pyrido[4,3-d]pyrimidin-4-yl)(methyl)amino)pyrrolidin-1-yl)-3-((R)-1-methylazetidin-2-yl)prop-2-en-1-one], the IC50 is reported as 10 to 100 nM.
`CN(c1nc(OC[C@@]23CCCN2C[C@H](F)C3)nc2c(F)c(-c3cccc4cccc(Cl)c34)ncc12)[C@@H]1CCN(C(=O)/C=C/c2nc(C(C)(C)O)no2)C1` [Example 107, (E)-1-((R)-3-((7-(8-chloronaphthalen-1-yl)-8-fluoro-2-(((2R,7aS)-2-fluorotetrahydro-1H-pyrrolizin-7a(5H)-yl)methoxy)pyrido[4,3-d]pyrimidin-4-yl)(methyl)amino)pyrrolidin-1-yl)-3-(3-(2-hydroxypropan-2-yl)-1,2,4-oxadiazol-5-yl)prop-2-en-1-one] showed an IC50 of less than 10 nM.
With `COC(=O)/C=C/C(=O)NCCN(C)c1nc(OC[C@@H]2CCCN2C)nc2c1CCN(c1cccc3cccc(Cl)c13)C2` [Example 22, methyl(S,E)-4-((2-((7-(8-chloronaphthalen-1-yl)-2-((1-methylpyrrolidin-2-yl)methoxy)-5,6,7,8-tetrahydropyrido[3,4-d]pyrimidin-4-yl)(methyl)amino)ethyl)amino)-4-oxobut-2-enoate] the IC50 was 100 to 500 nM.

Same assay, conditions: additional exemplary compounds; KRAS G12C and cRAF binding; read-out: RAF1 RBD IC50
Compound `C=CC(=O)N1CC[C@@H](N(C)c2nc(OC[C@@]34CCCN3C[C@H](F)C4)nc3c(F)c(-c4cc(C(F)F)cc5ccccc45)ncc23)C1` has an IC50 greater than 500 nM.
For `CN(c1nc(OC[C@@]23CCCN2C[C@H](F)C3)nc2c(F)c(-c3cccc4cccc(Cl)c34)ncc12)[C@@H]1CCN(C(=O)/C=C/c2ccncn2)C1`, the IC50 was greater than 500 nM.
`CN(C)C/C=C/C(=O)N1CC[C@@H](N(C)c2nc(OCC34CCCN3CCC4)nc3c(F)c(-c4cccc5ccc(F)c(Cl)c45)ncc23)C1` gave an IC50 of 10 to 100 nM.
`COC/C=C/C(=O)N1CC[C@@H](N(C)c2nc(OCC34CCCN3CCC4)nc3c2CCN(c2cccc4cccc(Cl)c24)C3)C1` was tested, and the IC50 was 100 to 500 nM.
`C=CC(=O)CCCN(C)c1nc(OC[C@@H]2CCCN2C)nc2c1CCN(c1cccc3ccccc13)C2` showed an IC50 greater than 500 nM.
Work on `CN(c1nc(OCC23CCCN2CCC3)nc2c1CCN(c1cccc3cccc(Cl)c13)C2)[C@@H]1CCN(C(=O)/C=C/CN2CC(F)C2)C1` yielded an IC50 of 10 to 100 nM.
In the case of `CN(c1nc(OC[C@@]23CCCN2C[C@H](F)C3)nc2c(F)c(-c3cccc4cccc(Cl)c34)ncc12)[C@@H]1CCN(C(=O)/C=C/c2ncn(C)n2)C1`, the IC50 is reported as greater than 500 nM.
`Cc1cc(/C=C/C(=O)N2CCC[C@@H](N(C)c3nc(OC[C@@]45CCCN4C[C@H](F)C5)nc4c(F)c(-c5cccc6cccc(Cl)c56)ncc34)C2)nc(C)n1` gave an IC50 greater than 500 nM.
For `N#CN1C2CCC1CN(c1nc(OC[C@@]34CCCN3C[C@H](F)C4)nc3c1CCN(c1cccc4cccc(Cl)c14)C3)C2`, the IC50 was greater than 500 nM.
Work on `C=CC(=O)[C@@H]1CC[C@H]1Nc1nc(OC[C@@H]2CCCN2C)nc2c1CCN(c1cccc3ccccc13)C2` yielded an IC50 greater than 500 nM.
With `C=CC(=O)N1CC[C@@H]1CN(C)c1nc(OC[C@@]23CCCN2C[C@H](F)C3)nc2c1CCN(c1cccc3cccc(Cl)c13)C2` the IC50 was greater than 500 nM.
Work on `C=CC(=O)N1C[C@H](C)C[C@H](Nc2nc(OC[C@@]34CCCN3C[C@H](F)C4)nc3c(F)c(-c4cccc5cccc(Cl)c45)ncc23)C1` yielded an IC50 greater than 500 nM.
With `C=CC(=O)N1C[C@H](C)C[C@@H](Nc2nc(OC[C@@]34CCCN3C[C@H](F)C4)nc3c(F)c(-c4cccc5cccc(Cl)c45)ncc23)C1` the IC50 was greater than 500 nM.
`C=CC(=O)N1CC2CC(Nc3nc(OC[C@@]45CCCN4C[C@H](F)C5)nc4c(F)c(-c5cccc6cccc(Cl)c56)ncc34)C1C2` (stereo partly shown) gave an IC50 greater than 500 nM.
`C=CC(=O)N1CC(CN(C)c2nc(OC[C@]34CCCN3C[C@H](F)C4)nc3c2CCN(c2cccc4cccc(Cl)c24)C3)C1` gave an IC50 of 100 to 500 nM.
For `CN(c1nc(OCC23CCCN2CCC3)nc2c1CCN(c1cccc3cccc(Cl)c13)C2)[C@@H]1CCN(C(=O)/C=C/CN2CC(F)(F)C2)C1`, the IC50 was 100 to 500 nM.
Compound `C=CC(=O)N1CC[C@@H](N(C)c2nc(OC[C@@]34CCCN3C[C@H](F)C4)nc3c2CCN(c2cc(O)cc4ccccc24)C3)C1` has an IC50 of 100 to 500 nM.
`C=CC(=O)[C@H](C)CN(C)c1nc(OC[C@@H]2CCCN2C)nc2c1CCN(c1cccc3ccccc13)C2` showed an IC50 greater than 500 nM.
In the case of `CN(C)C/C=C/C(=O)N1CC(CN(C)c2nc(OCC34CCCN3CCC4)nc3c(F)c(-c4cccc5ccc(F)c(Cl)c45)ncc23)C1`, the IC50 is reported as 10 to 100 nM.
